In patent publication US20080311168A1, “PROCESS FOR COMBATING ACARIDS” (RHODIA CHIMIE, priority 2002, published 2008):

Columns and labels:
[1] = tested on: dust mites (dermatophagoides pteronyssinus); assay: Regulation of a dust mite population by powders (derived from AFNOR NF G 39-011), Example 12; format: in vivo; conditions: for Number of living acarids after 6 weeks, Mean: 5 g test powder + 5 g nutrient medium (food 1/NF G 39-011), 50 acarids placed, 4 repetitions; for CP (coefficient of regulation of the population of acarids), Mean: 6 weeks, versus sample without additive, 5 g test powder + 5 g nutrient medium, 0 = ineffective, 100 = eradication
Procedure: This characterization is carried out by a laboratory registered by the French Ministry of Agriculture, Fisheries and Food. The object is to evaluate the effectiveness of PA powders, to which ZnS may or may not have been added, on the regulation of the change in a population of dust mites (dermatophagoides pteronyssinus). Monitoring is carried out over two development cycles of the acarids, i.e. 6 weeks.
The acarids used originate from a laboratory strain raised on a substrate composed of a 50/50 (w/w) mixture of wheatgerm and of brewers yeast as specks graded by sieving (fragments of less than 1 mm). The temperature is between 23 and 25° C. and the relative humidity is maintained at 75% by the presence of a saturated ammonium sulphate solution. The screen is kept in darkness.
The screen is supplied by the Laboratoire des Insectes et Acariens des Denrees [Laboratory of the Insects and Acarids of Foodstuff] of the Institut National de Recherches Agronomiques (INRA) [National Institute of Agronomic Research] at Bordeaux, according to the AFNOR standard NF G 39-011.
The method is derived directly from the AFNOR standard NF G 39-011, with the following variations: • the experimental unit is composed of a chamber with a diameter of 8 cm which is escapeproof with regard to acarids but which allows ventilation and in which are found: • 5 g of nutrient medium (food 1/NF G 39-011 appendix) • 5 g of test powder, carpeting the bottom of the chamber • the study is carried out by placing 50 acarids in these devices • 4 repetitions are carried out on the same day per experimental factor, including for the control batches composed of the same device but without the addition of the powder. The result is expressed in the form of a mean and standard deviation with regard to these 4 samples.
The monitoring consists in counting the number of living acarids after the time period of 6 weeks. As direct counting is rendered impossible by the structure of the substrate, extraction by heat according to the recommendations of the AFNOR standard NF G 39-011 is used.
The criterion of effectiveness of an additive is then defined as the coefficient of regulation of the population of acarids (CP), i.e.:
The population counts are all carried out at 6 weeks.

[2] = tested on: dust mites; assay: Curative test: ZnS powder deposited on fitted carpet holding an existing acarid population, Example 14; format: in vivo, dermatophagoides pteronyssinus
Procedure: (§1) The object of this study is to evaluate the effectiveness of a powder intended to be applied to floor coverings in a curative and/or preventive treatment for combating populations of dust mites.
(§2) This characterization is carried out in the same laboratory which carried out the test of Example 12. The source of the acarids is identical.
(§3) The test comprises two parts: • a curative test by deposition of the product on an existing population of acarids, • a preventive test with deposition of acarids on surfaces of fitted carpets treated beforehand with the product.
(§4) Monitoring is carried out over a period of at least two cycles, i.e. 6 weeks, and in comparison with a population not subjected to the product.
(§5) The experimental method is derived from the experimental context of the AFNOR standard NF G 39-011.
(§6) The experimental unit is composed of a chamber with a diameter of 8 cm which is escapeproof with regard to the acarids but which allows ventilation and in which are found: • a piece of short-pile polyamide fitted carpet as floor • 5 g of nutrient medium (dust+skin scales) • the corresponding dose of the test powder.
• approximately 50 active acarids are placed on the fitted carpets • the test product is mixed with the food and sprinkled with a salt cellar over the fitted carpet containing the acarids • 4 repetitions are carried out on the same day as experimental factor, including for the control batches composed of the same device but without the product • the product is applied at a rate of 160 mg/m^2 • 2 counts of the populations of acarids are carried out after incubating for 4 and 6 weeks under optimum development conditions.
(§7) • the product is mixed with the food and sprinkled with a salt cellar over pieces of acarid-free fitted carpets • one month later, approximately 50 active acarids are placed on the treated fitted carpets • 4 repetitions are carried out as experimental factor, including for the control batches composed of the same device but without the product (same control as for the curative test) • the product is applied at the rate of 10, 40, 80 and 160 mg/m^2 • counting of the population of acarids is carried out after incubating for 6 weeks under optimum development conditions. The monitorings consist in counting the number of living acarids after the time period of 4 or 6 weeks of incubation. The method of counting the acarids and the calculation of the coefficient of regulation of the population of acarids (CP) are identical to Example 12.
(§8) The population counts on controlled and treated are all carried out at the same number of weeks.

[3] = tested on: dust mites; assay: Preventive test: acarids deposited on fitted carpet treated beforehand with ZnS powder, Example 14; format: in vivo, dermatophagoides pteronyssinus
Procedure: as §1, §2, §3, §4, §5, §6, §7, §8

Compound: [S-2].[Zn+2] [ZnS 2, ZnS]
- Number of living acarids after 6 weeks, Mean [1]: 305
- CP (coefficient of regulation of the population of acarids), Mean [1]: 65

Compound: [S-2].[Zn+2] [ZnS 1, ZnS]
- Number of living acarids after 6 weeks, Mean [1]: 318
- CP (coefficient of regulation of the population of acarids), Mean [1]: 63
- Number of living acarids after 4 weeks, Mean ([2]; 160 mg/m^2, 4 weeks incubation): 148
- CP 4 weeks, Mean ([2]; 160 mg/m^2, 4 weeks, versus untreated carpet): 42
- Number of living acarids after 6 weeks, Mean ([2]; 160 mg/m^2, 6 weeks incubation): 284
- CP 6 weeks, Mean ([2]; 160 mg/m^2, 6 weeks, versus untreated carpet): 69
- CP 4 weeks, Mean ([3]; 10 mg/m^2, 4 weeks): 6
- CP 6 weeks, Mean ([3]; 10 mg/m^2, 6 weeks): 6
- Number of living acarids after 6 weeks, Mean ([3]; 10 mg/m^2, 6 weeks): 849
- Number of living acarids after 4 weeks, Mean ([3]; 10 mg/m^2, acarids placed one month after treatment, 4 weeks): 242
- CP 4 weeks, Mean ([3]; 40 mg/m^2, 4 weeks): 40
- Number of living acarids after 4 weeks, Mean ([3]; 40 mg/m^2, 4 weeks): 154
- CP 6 weeks, Mean ([3]; 40 mg/m^2, 6 weeks): 60
- Number of living acarids after 6 weeks, Mean ([3]; 40 mg/m^2, 6 weeks): 361
- CP 4 weeks, Mean ([3]; 80 mg/m^2, 4 weeks): 45
- Number of living acarids after 4 weeks, Mean ([3]; 80 mg/m^2, 4 weeks): 142
- CP 6 weeks, Mean ([3]; 80 mg/m^2, 6 weeks): 65
- Number of living acarids after 6 weeks, Mean ([3]; 80 mg/m^2, 6 weeks): 315
- CP 4 weeks, Mean ([3]; 160 mg/m^2, 4 weeks): 52
- Number of living acarids after 4 weeks, Mean ([3]; 160 mg/m^2, 4 weeks): 123
- CP 6 weeks, Mean ([3]; 160 mg/m^2, 6 weeks): 68
- Number of living acarids after 6 weeks, Mean ([3]; 160 mg/m^2, 6 weeks): 290
